Assay results: US9555021B2, “Pharmaceutical compositions comprising (3-(1-(1H-imidazol-4-yl)ethyl)-2-methylphenyl)methanol” (Allergan, Inc., priority 2009, dated 2017)
pEC50, pIC50: −log10 of the molar value.

What was measured:
[1] = target: T1, alpha-1A adrenergic receptor (Homo sapiens, UniProt P35348); test: FLIPR assay (intracellular calcium), alpha-1A adrenergic receptor; format: cell-based; details: for pEC50: first line of cell, HEK 293 cells, unit inferred, compounds tested at 0.64 nM-10,000 nM, read-out: α-1A agonism EC50; for alpha-1A activity in words (agonist/antagonist): Table 2; for α-1A relative efficacy as compared to norepinephrine: agonism
T1 sequence (P35348 1-466): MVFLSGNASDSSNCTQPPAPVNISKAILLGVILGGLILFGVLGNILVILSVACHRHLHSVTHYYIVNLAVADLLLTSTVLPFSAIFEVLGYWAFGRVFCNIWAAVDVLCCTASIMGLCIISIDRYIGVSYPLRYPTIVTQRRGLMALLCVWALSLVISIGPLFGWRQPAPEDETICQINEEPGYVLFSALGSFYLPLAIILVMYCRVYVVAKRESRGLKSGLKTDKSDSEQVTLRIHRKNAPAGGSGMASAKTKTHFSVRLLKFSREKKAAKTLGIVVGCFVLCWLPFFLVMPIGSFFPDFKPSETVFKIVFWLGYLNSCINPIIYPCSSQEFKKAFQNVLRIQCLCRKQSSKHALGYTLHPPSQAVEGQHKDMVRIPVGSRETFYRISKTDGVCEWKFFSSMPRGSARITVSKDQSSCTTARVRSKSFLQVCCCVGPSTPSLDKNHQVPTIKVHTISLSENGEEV
Description: (§1) Compounds of the invention were evaluated in a FLIPR assay in order to determine their specificity for five alpha adrenergic receptors. The FLIPR assay measures release of intracellular calcium in response to receptor activation. Cells are preloaded with a calcium sensitive dye that fluoresces in response to calcium. Receptors that activate the G protein, Gq, elicit the response. Alpha adrenergic receptors, which normally couple to Gi, trigger the increase in intracellular calcium when coexpressed with a hybrid Gq protein containing a Gi receptor recognition domain, designated Gq/i5 (Conklin et al., Nature 363:274-6 (1993)) or with the promiscuous G protein Ga16.
(§2) The assay was performed essentially as follows. HEK 293 cells stably expressing an alpha-2 receptor and either the chimeric G-protein Gqi5 or the promiscuous G protein G16 were plated in poly-D-lysine coated 384-well plates at 20,000-25,000 cells per well and grown overnight in DMEM supplemented with 10% FBS. Cells were washed twice with HBSS/HEPES Buffer (1× Hanks Buffered Salt Solution, 20 mM HEPES, pH 7.4) prior to the addition of Fluo-4-AM (4 μM Fluo-4-AM, 0.04% pluronic acid in HBSS/HEPES Buffer), a calcium-sensitive dye. Cells were loaded with dye for 60 minutes at 37° C., then washed 4 times with HBSS/HEPES Buffer. The reaction was initiated by the addition of the appropriate dilutions of compounds (final concentration between 0.64 nM-10,000 nM) and the transient calcium signal captured. The peak height of the calcium curve was determined and utilized for calculation of EC50 and efficacy using ActivityBase.

[2] = target: T2, alpha-2A adrenergic receptor (Homo sapiens, UniProt P08913); test: FLIPR assay (intracellular calcium), alpha-2A adrenergic receptor; format: cell-based; details: for alpha-2A activity in words (agonist/antagonist): Table 2; for pEC50: first line of cell, compounds tested at 0.64 nM-10,000 nM, read-out: α-2A agonism EC50; for α-2A relative efficacy as compared to norepinephrine: agonism
T2 construct: expressed in transfected cells
T2 sequence (P08913 1-465): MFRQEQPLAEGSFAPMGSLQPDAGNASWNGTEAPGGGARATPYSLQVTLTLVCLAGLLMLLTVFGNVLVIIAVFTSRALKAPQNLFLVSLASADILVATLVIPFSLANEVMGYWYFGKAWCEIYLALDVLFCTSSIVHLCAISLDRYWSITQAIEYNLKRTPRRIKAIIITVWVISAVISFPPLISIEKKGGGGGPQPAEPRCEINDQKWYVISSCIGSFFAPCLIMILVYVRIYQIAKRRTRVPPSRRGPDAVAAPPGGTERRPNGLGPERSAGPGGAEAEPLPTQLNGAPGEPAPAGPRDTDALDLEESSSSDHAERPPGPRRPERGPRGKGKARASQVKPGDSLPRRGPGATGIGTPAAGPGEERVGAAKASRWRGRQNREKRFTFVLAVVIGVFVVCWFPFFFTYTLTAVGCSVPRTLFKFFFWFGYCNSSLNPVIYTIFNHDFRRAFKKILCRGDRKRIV
Description: as §1, §2

[3] = target: T3, alpha-2B adrenergic receptor (Homo sapiens, UniProt P18089); test: FLIPR assay (intracellular calcium), alpha-2B adrenergic receptor; format: cell-based; details: for alpha-2B activity in words (agonist/antagonist): Table 2; for α-2B relative efficacy as compared to norepinephrine: agonism, value in parenthesis; for pEC50: first line of cell, unit inferred, compounds tested at 0.64 nM-10,000 nM, read-out: α-2B agonism EC50
T3 construct: expressed in transfected cells
T3 sequence (P18089 1-450): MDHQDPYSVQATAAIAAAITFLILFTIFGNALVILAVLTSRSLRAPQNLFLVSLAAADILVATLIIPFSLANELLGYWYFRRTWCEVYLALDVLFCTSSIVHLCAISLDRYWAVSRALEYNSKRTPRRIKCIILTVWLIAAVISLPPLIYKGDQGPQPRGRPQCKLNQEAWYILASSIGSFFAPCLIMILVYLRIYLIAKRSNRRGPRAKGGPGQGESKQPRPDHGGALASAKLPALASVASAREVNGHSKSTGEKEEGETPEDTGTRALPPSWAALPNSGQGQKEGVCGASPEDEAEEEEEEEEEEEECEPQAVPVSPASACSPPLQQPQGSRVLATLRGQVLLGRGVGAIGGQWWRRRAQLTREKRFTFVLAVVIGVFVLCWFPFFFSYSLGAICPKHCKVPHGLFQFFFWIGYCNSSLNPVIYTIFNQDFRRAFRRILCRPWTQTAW
Description: as §1, §2

[4] = target: T4, alpha-1B adrenergic receptor (Homo sapiens, UniProt P35368); test: FLIPR assay (intracellular calcium), alpha-1B adrenergic receptor; format: cell-based; details: unit inferred; for pEC50: first line of cell, compounds tested at 0.64 nM-10,000 nM, read-out: α-1B agonism EC50; for pIC50: second line of cell, read-out: α-1B antagonism IC50
T4 sequence (P35368 1-520): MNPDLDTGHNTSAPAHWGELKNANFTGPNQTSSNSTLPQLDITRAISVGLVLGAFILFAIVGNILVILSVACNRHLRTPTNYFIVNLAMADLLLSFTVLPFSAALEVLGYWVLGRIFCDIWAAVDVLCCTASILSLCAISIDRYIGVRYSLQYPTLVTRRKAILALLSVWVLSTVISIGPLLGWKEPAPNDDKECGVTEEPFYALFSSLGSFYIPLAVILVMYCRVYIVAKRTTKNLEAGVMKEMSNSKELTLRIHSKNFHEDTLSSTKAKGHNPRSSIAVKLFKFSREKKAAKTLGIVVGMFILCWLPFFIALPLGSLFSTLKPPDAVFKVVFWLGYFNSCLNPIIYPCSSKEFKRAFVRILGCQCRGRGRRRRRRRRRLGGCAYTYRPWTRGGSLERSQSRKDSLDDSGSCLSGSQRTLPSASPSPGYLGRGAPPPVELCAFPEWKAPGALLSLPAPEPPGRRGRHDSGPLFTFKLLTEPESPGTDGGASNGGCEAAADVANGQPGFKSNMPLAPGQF
Description: as §1, §2

[5] = target: T5, alpha-2C adrenergic receptor (Homo sapiens, UniProt P18825); test: FLIPR assay (intracellular calcium), alpha-2C adrenergic receptor; format: cell-based; details: for alpha-2C activity in words (agonist/antagonist): Table 2; for α-2C relative efficacy as compared to norepinephrine: agonism, value in parenthesis; for pEC50: first line of cell, unit inferred, compounds tested at 0.64 nM-10,000 nM, read-out: α-2C agonism EC50
T5 construct: expressed in transfected cells
T5 sequence (P18825 1-462): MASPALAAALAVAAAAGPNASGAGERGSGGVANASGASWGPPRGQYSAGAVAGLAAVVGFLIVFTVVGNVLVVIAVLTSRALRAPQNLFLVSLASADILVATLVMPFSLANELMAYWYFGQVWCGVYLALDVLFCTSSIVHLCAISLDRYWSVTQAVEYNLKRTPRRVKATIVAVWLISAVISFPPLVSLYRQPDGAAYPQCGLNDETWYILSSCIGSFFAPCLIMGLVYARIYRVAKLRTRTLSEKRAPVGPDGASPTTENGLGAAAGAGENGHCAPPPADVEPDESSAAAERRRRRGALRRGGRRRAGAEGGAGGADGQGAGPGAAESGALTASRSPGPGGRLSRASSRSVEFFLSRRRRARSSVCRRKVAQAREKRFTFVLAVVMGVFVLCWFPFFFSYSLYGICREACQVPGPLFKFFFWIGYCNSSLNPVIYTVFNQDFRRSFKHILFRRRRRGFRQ
Description: as §1, §2

mice [6] = details: as described in Gil et al., Br J Pharmacol 153: 769-74 (2008); cited from earlier work
mice [7] = test: Locomotor activity (sedation); format: in vivo; details: 30 minutes after dosing
[8] = FIG. 3 / FIG. 4
Description: The tactile hypersensitivity of 5-6 mice (weighing approx. 25 g) per group was scored every five minutes between 15 and 50 minutes following intraperitoneal dosing with 300 ng/kg (in a 1 mL/kg volume) sulprostone (Cayman Chemical Company, Ann Arbor, Mich.). Compound I or vehicle was administered intraperitoneally 15 minutes prior to sulprostone.
(§3) Tactile hypersensitivity was quantified by scoring the response of mice to light stroking of their flanks with a small paintbrush, which is not normally painful.
The computer analyses this movement and records total activity. Locomotor activity relative to vehicle-treated animals was expressed as a percentage; percentage sedation was calculated as 100% minus the percent locomotor activity. Statistical calculations of significance for in vivo studies were done using a two-tailed Student's t-test.

mice [9] = test: Sulprostone-induced tactile hypersensitivity; format: in vivo; details: 0.3 mg/kg intraperitoneally 15 minutes prior to sulprostone
Description: The tactile hypersensitivity of 5-6 mice (weighing approx. 25 g) per group was scored every five minutes between 15 and 50 minutes following intraperitoneal dosing with 300 ng/kg (in a 1 mL/kg volume) sulprostone (Cayman Chemical Company, Ann Arbor, Mich.).
as §3

[10] = second line of cell, value in parenthesis

SMILES	pEC50 [1]	alpha-2A activity in words (agonist/antagonist) [2]	pEC50 ([2]; unit inferred)	alpha-2B activity in words (agonist/antagonist) [3]	α-2B relative efficacy as compared to norepinephrine [3]	pEC50 [3]	pEC50 [4]	pIC50 [4]	alpha-2C activity in words (agonist/antagonist) [5]	α-2C relative efficacy as compared to norepinephrine [5]	pEC50 [5]	activity in sulprostone-induced tactile hypersensitivity model (mice [6])	margin of safety for pain reduction vs. sedation [8]	alpha-1A activity in words (agonist/antagonist) [1]	α-1A relative efficacy as compared to norepinephrine ([1]; value in parenthesis)	α-2A relative efficacy as compared to norepinephrine ([2]; value in parenthesis)	also measured
Cc1c(CO)cccc1[C@@H](C)c1c[nH]cn1 [Compound II, (R)-(3-(1-(1H-imidazol-4-yl)ethyl)-2-methylphenyl)methanol]	< 5.00	antagonist	< 5.00	agonist	(.68)	7.28	< 5.00	< 5.08	agonist	(.64)	6.77	–	–	–	–	–	α-1A percent antagonism [1, 10]: (39%); α-2A percent antagonism [2, 10]: (96%); pIC50 ([2]; second line of cell, unit inferred, read-out: α-2A antagonism IC50): 6.84
CN(C)CCC=C1c2ccccc2CCc2ccccc21 [amitriptyline]	–	–	–	–	–	–	–	–	–	–	–	active	–	–	–	–	–
NCC1(CC(=O)O)CCCCC1 [gabapentin]	–	–	–	–	–	–	–	–	–	–	–	active	–	–	–	–	–
Cc1c(CO)cccc1C(C)c1c[nH]cn1 (racemic) [Compound I, (3-(1-(1H-imidazol-4-yl)ethyl)-2-methylphenyl)methanol]	5.79	alpha-2 pan agonist	7.27	alpha-2 pan agonist	(.94)	8.26	< 5.00	< 5.08	alpha-2 pan agonist	(.98)	7.80	–	> 10 fold	some alpha-1A agonist activity	(.69)	(.75)	sedation (locomotor activity) (mice [7]; 1 mg/kg intraperitoneal): minimally sedating; sedation (locomotor activity) (mice [7]; 3 mg/kg intraperitoneal): highly sedating; reduction in sulprostone induced hypersensitivity (mice [9]): back to control levels
Cc1c(CO)cccc1[C@H](C)c1c[nH]cn1 [Compound III, (S)-(3-(1-(1H-imidazol-4-yl)ethyl)-2-methylphenyl)methanol]	6.35	alpha-2 pan agonist	7.14	alpha-2 pan agonist	(.93)	8.52	< 5.08	–	alpha-2 pan agonist	(1)	8.10	–	–	some alpha-1A agonist activity	(.76)	(.9)	–
Cc1cccc([C@H](C)c2cnc[nH]2)c1C [dexmedetomidine]	–	–	–	–	–	–	–	–	–	–	–	–	no margin of safety	–	–	–	–
